target: T1, AR-VP16 (Homo sapiens, UniProt P10275); assay: AR-VP16 DNA Binding Assay, antagonist mode (HepG2 cells, 0.1 nM R1881); type: cell-based
T1 sequence (P10275 560-920 limits assumed): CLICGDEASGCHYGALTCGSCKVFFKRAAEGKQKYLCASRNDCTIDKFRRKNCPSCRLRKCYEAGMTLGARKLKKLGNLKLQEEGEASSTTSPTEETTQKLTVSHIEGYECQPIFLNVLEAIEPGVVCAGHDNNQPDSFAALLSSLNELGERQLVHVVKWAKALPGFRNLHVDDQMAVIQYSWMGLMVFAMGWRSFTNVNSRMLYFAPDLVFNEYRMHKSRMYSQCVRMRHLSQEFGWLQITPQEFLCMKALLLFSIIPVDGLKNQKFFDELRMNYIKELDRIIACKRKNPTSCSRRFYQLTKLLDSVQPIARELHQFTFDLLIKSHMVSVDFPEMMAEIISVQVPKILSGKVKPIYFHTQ
Procedure: Cells were transiently transfected using Lipofectin (Life Technologies) according to the manufacturer's protocol. […] Transfected cells were incubated overnight then treated with ligand. […] For antagonist assays, the compounds were serially diluted and 50 μL of compound with RPMI supplemented with charcoal stripped serum plus methyltrienolone (R1881) were added to the cells. The final R1881 concentration used in the antagonist assays was 0.1 nM. Following 48 hour incubation the medium was removed and the cells were lysed in 40 μL of lysis buffer (25 mM Tris Phosphate, 2 mM CDTA, 10% Glycerol, 0.5% Triton X-100, 2 mM DTT).

Row | SMILES | IC50 [nM]
1 | CN1CCN(CCOc2ccc(N3C(=S)N(c4ccc(C#N)c5ncccc45)C(=O)C34CCC4)cc2F)CC1 [Compound 173, 5-(5-(3-Fluoro-4-(2-(4-methylpiperazin-1-yl)ethoxy)phenyl)-8-oxo-6-thioxo-5,7-diazaspiro[3.4]octan-7-yl)quinoline-8-carbonitrile] | < 1000
2 | N#Cc1ncc(N2C(=O)C3(CCC3)N(c3ccc(Oc4ccccn4)cc3)C2=S)cc1C(F)(F)F [Compound 41, 5-(8-Oxo-5-(4-(pyridin-2-yloxy)phenyl)-6-thioxo-5,7-diazaspiro[3.4]octan-7-yl)-3-(trifluoromethyl)picolinonitrile] | < 1000
3 | N#Cc1ccc(N2C(=S)N(c3cnc(C#N)c(C(F)(F)F)c3)C(=O)C23CCC3)cc1F [Compound 56, 5-(5-(4-Cyano-3-fluorophenyl)-8-oxo-6-thioxo-5,7-diazaspiro[3.4]octan-7-yl)-3-(trifluoromethyl)picolinonitrile] | < 1000
4 | N#Cc1ncc(N2C(=O)C3(CCC3)N(c3ccc4ccncc4c3)C2=S)cc1C(F)(F)F [Compound 52, 5-(5-(Isoquinolin-7-yl)-8-oxo-6-thioxo-5,7-diazaspiro[3.4]octan-7-yl)-3-(trifluoromethyl)picolinonitrile] | < 1000
5 | N#Cc1ncc(N2C(=O)C3(CCC3)N(c3ccc(OCCN4CCCC4)c(F)c3)C2=S)cc1C(F)(F)F [Compound 127, 5-(5-(3-Fluoro-4-(2-(pyrrolidin-1-yl)ethoxy)phenyl)-8-oxo-6-thioxo-5,7-diazaspiro[3.4]octan-7-yl)-3-(trifluoromethyl)picolinonitrile] | < 1000
6 | N#Cc1ncc(N2C(=O)C3(CCC3)N(c3cccnc3)C2=S)cc1C(F)(F)F [Compound 19, 5-(8-Oxo-5-(pyridin-3-yl)-6-thioxo-5,7-diazaspiro[3.4]octan-7-yl)-3-(trifluoromethyl)picolinonitrile] | > 1000
7 | N#Cc1ncc(N2C(=O)C3(CCC3)N(c3ccc(OCCc4cnccn4)c(F)c3)C2=S)cc1C(F)(F)F [Compound 176, 5-(5-(3-Fluoro-4-(2-(pyrazin-2-yl)ethoxy)phenyl)-8-oxo-6-thioxo-5,7-diazaspiro[3.4]octan-7-yl)-3-(trifluoromethyl)picolinonitrile] | < 1000
8 | CNC(=O)c1ccc(N2C(=S)N(c3cnc(C#N)c4ccccc34)C(=O)C23CCC3)cc1F [Compound 66, 4-(7-(1-Cyanoisoquinolin-4-yl)-8-oxo-6-thioxo-5,7-diazaspiro[3.4]octan-5-yl)-2-fluoro-N-methylbenzamide] | < 1000
9 | Cc1cc(N2C(=O)C3(CCC3)N(c3ccc(C(=O)Nc4ccc(F)cc4)c(F)c3)C2=S)cnc1C#N [Compound 299, 4-(7-(6-Cyano-5-methylpyridin-3-yl)-8-oxo-6-thioxo-5,7-diazaspiro[3.4]octan-5-yl)-2-fluoro-N-(4-fluorophenyl)benzamide] | < 1000
10 | COc1ccc(N2C(=S)N(c3cnc(C#N)c(C(F)(F)F)c3)C(=O)C23CCC3)cc1 [Compound 204, 5-(5-(4-Methoxyphenyl)-8-oxo-6-thioxo-5,7-diazaspiro[3.4]octan-7-yl)-3-(trifluoromethyl)picolinonitrile] | < 1000
11 | N#Cc1ncc(N2C(=O)C3(CCC3)N(c3ccc(C(=O)NCc4ccccc4)c(F)c3)C2=S)cc1C(F)(F)F [Compound 235, N-Benzyl-4-(7-(6-cyano-5-(trifluoromethyl)pyridin-3-yl)-8-oxo-6-thioxo-5,7-diazaspiro[3.4]octan-5-yl)-2-fluorobenzamide] | < 1000
12 | N#Cc1ncc(N2C(=O)C3(CCC3)N(c3ccc4ccccc4c3)C2=S)cc1C(F)(F)F [Compound 9, 5-(5-(Naphthalen-2-yl)-8-oxo-6-thioxo-5,7-diazaspiro[3.4]octan-7-yl)-3-(trifluoromethyl)picolinonitrile] | < 1000
13 | Cc1ccc(N2C(=S)N(c3ccc(C#N)c4ccccc34)C(=O)C23CCC3)cc1 [Compound 94, 4-(8-Oxo-6-thioxo-5-(p-tolyl)-5,7-diazaspiro[3.4]octan-7-yl)-1-naphthonitrile] | < 1000
14 | Cc1ccccc1CCOc1ccc(N2C(=S)N(c3cnc(C#N)c(C(F)(F)F)c3)C(=O)C23CCC3)cc1F [Compound 137, 5-(5-(3-Fluoro-4-(2-methylphenethoxy)phenyl)-8-oxo-6-thioxo-5,7-diazaspiro[3.4]octan-7-yl)-3-(trifluoromethyl)picolinonitrile] | < 1000
15 | Cc1ccc(NC(=O)c2ccc(N3C(=S)N(c4cnc(C#N)c(C)c4)C(=O)C34CCC4)cc2F)cn1 [Compound 304, 4-(7-(6-Cyano-5-methylpyridin-3-yl)-8-oxo-6-thioxo-5,7-diazaspiro[3.4]octan-5-yl)-2-fluoro-N-(6-methylpyridin-3-yl)benzamide] | < 1000
16 | N#Cc1ncc(N2C(=O)C3(CCC3)N(c3ccc(OCCC(F)(F)C(F)(F)F)c(F)c3)C2=S)cc1C(F)(F)F [Compound 139, 5-(5-(3-Fluoro-4-(3,3,4,4,4-pentafluorobutoxy)phenyl)-8-oxo-6-thioxo-5,7-diazaspiro[3.4]octan-7-yl)-3-(trifluoromethyl)picolinonitrile] | < 1000
17 | N#Cc1ncc(N2C(=O)C3(CCC3)N(c3ccc(C(=O)NC4CC4)c(F)c3)C2=S)cc1C(F)(F)F [Compound 284, 4-(7-(6-Cyano-5-(trifluoromethyl)pyridin-3-yl)-8-oxo-6-thioxo-5,7-diazaspiro[3.4]octan-5-yl)-N-cyclopropyl-2-fluorobenzamide] | < 1000
18 | CN1CCN(CCCOc2ccc(N3C(=S)N(c4cnc(C#N)c(C(F)(F)F)c4)C(=O)C34CCC4)cc2F)CC1 [Compound 157, 5-(5-(3-Fluoro-4-(3-(4-methylpiperazin-1-yl)propoxy)phenyl)-8-oxo-6-thioxo-5,7-diazaspiro[3.4]octan-7-yl)-3-(trifluoromethyl)picolinonitrile] | < 1000
19 | N#Cc1ncc(N2C(=O)C3(CCC3)N(c3ccc(OCCN4CCCCC4)c(F)c3)C2=S)cc1C(F)(F)F [Compound 177, 5-(5-(3-Fluoro-4-(2-(piperidin-1-yl)ethoxy)phenyl)-8-oxo-6-thioxo-5,7-diazaspiro[3.4]octan-7-yl)-3-(trifluoromethyl)picolinonitrile] | < 1000
20 | N#Cc1ncc(N2C(=O)C3(CCC3)N(c3cccc4ccccc34)C2=S)cc1C(F)(F)F [Compound 110, 5-(5-(Naphthalen-1-yl)-8-oxo-6-thioxo-5,7-diazaspiro[3.4]octan-7-yl)-3-(trifluoromethyl)picolinonitrile] | < 1000
21 | N#Cc1ncc(N2C(=O)C3(CCC3)N(c3ccc(OCCc4ccncc4)c(F)c3)C2=S)cc1C(F)(F)F [Compound 142, 5-(5-(3-Fluoro-4-(2-(pyridin-4-yl)ethoxy)phenyl)-8-oxo-6-thioxo-5,7-diazaspiro[3.4]octan-7-yl)-3-(trifluoromethyl)picolinonitrile] | < 1000
22 | N#Cc1ncc(N2C(=O)C3(CCC3)N(c3ccc(OCCc4ccccn4)cc3F)C2=S)cc1C(F)(F)F [Compound 183, 5-(5-(2-Fluoro-4-(2-(pyridin-2-yl)ethoxy)phenyl)-8-oxo-6-thioxo-5,7-diazaspiro[3.4]octan-7-yl)-3-(trifluoromethyl)picolinonitrile] | < 1000
23 | N#Cc1ncc(N2C(=O)C3(CCC3)N(c3ccc(OCCC4CCCCC4)c(F)c3)C2=S)cc1C(F)(F)F [Compound 179, 5-(5-(4-(2-Cyclohexylethoxy)-3-fluorophenyl)-8-oxo-6-thioxo-5,7-diazaspiro[3.4]octan-7-yl)-3-(trifluoromethyl)picolinonitrile] | < 1000
24 | CC(=O)N1CCN(CCOc2ccc(N3C(=S)N(c4cnc(C#N)c(C(F)(F)F)c4)C(=O)C34CCC4)cc2F)CC1 [Compound 202, 5-(5-(4-(2-(4-Acetylpiperazin-1-yl)ethoxy)-3-fluorophenyl)-8-oxo-6-thioxo-5,7-diazaspiro[3.4]octan-7-yl)-3-(trifluoromethyl)picolinonitrile] | < 1000
25 | N#Cc1ncc(N2C(=O)C3(CCC3)N(c3ccc(C(=O)NCCCN4CCOCC4)c(F)c3)C2=S)cc1C(F)(F)F [Compound 268, 4-(7-(6-Cyano-5-(trifluoromethyl)pyridin-3-yl)-8-oxo-6-thioxo-5,7-diazaspiro[3.4]octan-5-yl)-2-fluoro-N-(3-morpholinopropyl)benzamide] | < 1000
26 | N#Cc1ccc(N2C(=S)N(c3cnc(C#N)c(C(F)(F)F)c3)C(=O)C23CCC3)c(F)c1 [Compound 70, 5-(5-(4-Cyano-2-fluorophenyl)-8-oxo-6-thioxo-5,7-diazaspiro[3.4]octan-7-yl)-3-(trifluoromethyl)picolinonitrile] | < 1000
27 | CN1CCN(CCOc2ccc(N3C(=S)N(c4cnc(C#N)c(C(F)(F)F)c4)C(=O)C34CCC4)c(F)c2)CC1 [Compound 182, 5-(5-(2-Fluoro-4-(2-(4-methylpiperazin-1-yl)ethoxy)phenyl)-8-oxo-6-thioxo-5,7-diazaspiro[3.4]octan-7-yl)-3-(trifluoromethyl)picolinonitrile] | < 1000
28 | N#Cc1ncc(N2C(=O)C3(CCC3)N(c3ccc(OC4CCN(CCO)CC4)cc3)C2=S)cc1C(F)(F)F [Compound 218, 5-(5-(4-((1-(2-hydroxyethyl)piperidin-4-yl)oxy)phenyl)-8-oxo-6-thioxo-5,7-diazaspiro[3.4]octan-7-yl)-3-(trifluoromethyl)picolinonitrile] | < 1000

Reference: patent US9108944B2, “Androgen receptor modulators and uses thereof” (ARAGON PHARMACEUTICALS, INC., priority 2010, dated 2015)
